Reference: patent US20090186835A1, “TREATMENT AND PROPHYLAXIS OF CANCER” (priority 2008, published 2009)
Read-outs that look alike come from different tables or passages of the source.

Key:
[1] = tested on: Human pancreatic carcinoma (HPAC) cells; assay: Apoptosis (annexin) in HPAC cells; format: cell-based; conditions: 0.5-2.0 mg/ml, 24 hours
Experimental: The sophorolipid mixtures of the present invention have anti cancer properties, which were confirmed by experiment and observations. […] Controls consisted of cells treated with media or vehicle alone and sophorolipids treatment of peripheral blood mononuclear cells (PBMC). AS mediated toxicity was inversely proportional with dose (LSD—40.3% at 0.5 mg/ml, 3.4% at 2.0 mg/ml, AS 49% at 0.5 mg/ml, 0% at 2.0 mg/ml).

[2] = tested on: human pancreatic carcinoma cells (HPAC)
Experimental: (§1) The pancreatic cancer cell line, human pancreatic carcinoma cells (HPAC), was obtained from American Tissue and Cell Culture and cultured in complete media according to American Tissue and Cell Culture guidelines in T-75-cm^2 flasks in a 37° C. incubator with 5% CO2. HPAC cells were grown in Dulbecco's modified Eagle's medium with Ham F-12, 5% fetal bovine serum, 5% penicillin/streptomycin, 0.002 mg/mL insulin, 0.005 mg/mL transferrin, 40 ng/mL hydrocortisone, and 10 ng/mL epidermal growth factor.
(§2) 1×10^4 HPAC cells were aliquoted into each well of a 96-well plate and served as target cells. They were plated in phenol red dye-free RPMI 1640 (HyClone, Logan, Utah) complete medium (1 mM L-glutamine, 100 U/mL penicillin, 100 μg/mL streptomycin, 5% heat-inactivated fetal bovine serum; Gibco-BRL, Grand Island, N.Y.) and incubated with either natural mixture or sophorolipid derivative in increasing concentrations (0, 50, 100, 150, 200 mg; 100 μL final volume) at 37° C. with 5% CO2 overnight.
(§3) Assays were carried out using a CytoTox 96 Non-Radioactive Cytotoxicity Assay (Promega, Woodshole, Mass.), in accordance with manufacturer's directions. This assay measures lactate dehydrogenase (LDH) release by target cells, after conversion of a tetrazolium salt into a formazan red product. Cytotoxicity as measured by LDH release is considered an effective measure of determining cellular necrosis. Sophorolipid mixtures or derivatives (0, 50, 100, 150, 200 mg) were added to 96-well tissue culture plates (Fisher Scientific, Springfield, N.J.) containing HPAC cells (100 μL final volume) and incubated at 37° C., 5% CO2, for 20 h. To establish maximum lysis, lysing solution (9% v/v Triton-X 100; 10 μL) was added to representative culture wells containing HPAC cells. After incubation, supernatant (50 μL) was transferred to a fresh 96-well plate. Chromogenic substrate solution (50 μL) was added to each well while the plates were incubated in the dark at RT for 30 min, after which stop solution (1M NaAc; 50 μL) was added to each well to stop the reaction.
(§4) Cytotoxicity as measured by LDH release was determined by spectrophotometry at 450 nm (Bio-Tek Instruments Inc., Winooski, Vt.). […] Data shown represent the mean of at least three experiments±SE and are expressed as percentage cytotoxicity. Background controls were corrected for and consisted of target cell spontaneous (HPACs in media) and target cell maximum (HPACs in media with 10 μL lysis solution). Target cell maximum was corrected for by a volume control (media with 10 μL lysis solution). Each experiment was corrected for by a sophorolipid control (sophorolipid in media). These controls were incubated on the same 96-well plate as experimental assays. Percent (%) cytotoxicity was calculated according to the general equation below:
(§5) Values for results were expressed as means±SE obtained from multiple determinations in three or more separate experiments. P values computed were two-tailed, and P<0.05 was considered statistically significant (Student's t-test, analysis of variance with Tukey post-hoc correction; SPSS version 10.0, Chicago, Ill.).

[3] = tested on: human pancreatic carcinoma cells (HPAC); assay: CytoTox 96 LDH release cytotoxicity assay on HPAC cells
Experimental: as §1, §2, §3, §4, §5

Compound	apoptosis (annexin) [1]	dose dependence of the cytotoxic response [2]	percent cytotoxicity (LDH release) ([3]; HPAC cells cultured with 100 μg of sophorolipid natural mixture or derivative, FIG. 2) [%]	percent cytotoxicity (LDH release) ([3]; HPAC cells, 0.5 mg/mL) [%]	percent cytotoxicity (LDH release) ([3]; HPAC cells, 2.0 mg/mL) [%]	dose dependence of the cytotoxic response ([3]; HPAC cells, 0.5-2.0 mg/ml, in words)
acidic sophorolipid [AS]	Dose dependant apoptosis could be observed	inversely proportional to dose				
CC(=O)OC[C@H]1O[C@H]2OC(C)CCCCCC/C=C\CCCCCCCC(=O)O[C@H]3[C@H](O)[C@@H](O)[C@H](O[C@@H]2[C@@H](O)[C@@H]1O)O[C@@H]3COC(C)=O (stereo partly drawn) [LSD, lactonic sophorolipid diacetate]			26.2	40.3	3.4	inversely proportional to dose
